ChEMBL document CHEMBL1201862, “PubChem BioAssay data set” (2004)
Activity calls are given as the source filed them.

How the values were obtained:
[1] = HIV-1 AD8 envelope cell-cell fusion blockers – cherry-pick, dose response (AID 652062); type: functional, cell-based;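 also: luciferase signal from cell-cell fusion driven by HIV-1 clade B AD8 Env; potency is for inhibitors of fusion seen as a drop in luminescence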
[2] = blockers of HIV-1 ZM109 envelope-driven cell-cell fusion – HeLa effector, CEM target cells, luciferase, cherry-pick, dose response (AID 652058); type: functional, cell-based;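 also: luciferase signal from HIV-1 Env mediated cell-cell fusion of effector and target cells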
[3] = off-target signal loss in HeLa-CEM21 co-culture – HeLa F-luc CTL cells, cherry-picked, counter-screen for HIV-1 Env fusion inhibitor project, dose response (AID 652040); type: functional, cell-based;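 also: potency for signal decrease marking cytotoxic or nonspecific inhibition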
[4] = viability loss in CEM21 cells – cell-based, CellTiter-Glo luminescence, cherry-picked, cytotoxicity control for viral fusion inhibitor project, dose response (AID 652042); type: functional;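 also: potency for signal decrease meaning cytotoxicity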
[5] = blockers of HIV-1 envelope-mediated cell-cell fusion – cherry-pick, dose response (AID 652057); type: functional, cell-based
[6] = cells; type: functional, cell-based
[7] = cells; type: functional, cell-based; remark: listed apart in the source
[8] = molecular target: T1, Short transient receptor potential channel 4 (Mus musculus, UniProt Q9QUQ5); assay: block of DAMGO-driven TRPC4 calcium entry – cell-based, HEK293 TRPC4/mu-opioid, Fluo-4 calcium, dose response (AID 434942); type: functional;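 also: potency of inhibitors blocking the TRPC4 calcium response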
T1 sequence (Q9QUQ5 whole entry): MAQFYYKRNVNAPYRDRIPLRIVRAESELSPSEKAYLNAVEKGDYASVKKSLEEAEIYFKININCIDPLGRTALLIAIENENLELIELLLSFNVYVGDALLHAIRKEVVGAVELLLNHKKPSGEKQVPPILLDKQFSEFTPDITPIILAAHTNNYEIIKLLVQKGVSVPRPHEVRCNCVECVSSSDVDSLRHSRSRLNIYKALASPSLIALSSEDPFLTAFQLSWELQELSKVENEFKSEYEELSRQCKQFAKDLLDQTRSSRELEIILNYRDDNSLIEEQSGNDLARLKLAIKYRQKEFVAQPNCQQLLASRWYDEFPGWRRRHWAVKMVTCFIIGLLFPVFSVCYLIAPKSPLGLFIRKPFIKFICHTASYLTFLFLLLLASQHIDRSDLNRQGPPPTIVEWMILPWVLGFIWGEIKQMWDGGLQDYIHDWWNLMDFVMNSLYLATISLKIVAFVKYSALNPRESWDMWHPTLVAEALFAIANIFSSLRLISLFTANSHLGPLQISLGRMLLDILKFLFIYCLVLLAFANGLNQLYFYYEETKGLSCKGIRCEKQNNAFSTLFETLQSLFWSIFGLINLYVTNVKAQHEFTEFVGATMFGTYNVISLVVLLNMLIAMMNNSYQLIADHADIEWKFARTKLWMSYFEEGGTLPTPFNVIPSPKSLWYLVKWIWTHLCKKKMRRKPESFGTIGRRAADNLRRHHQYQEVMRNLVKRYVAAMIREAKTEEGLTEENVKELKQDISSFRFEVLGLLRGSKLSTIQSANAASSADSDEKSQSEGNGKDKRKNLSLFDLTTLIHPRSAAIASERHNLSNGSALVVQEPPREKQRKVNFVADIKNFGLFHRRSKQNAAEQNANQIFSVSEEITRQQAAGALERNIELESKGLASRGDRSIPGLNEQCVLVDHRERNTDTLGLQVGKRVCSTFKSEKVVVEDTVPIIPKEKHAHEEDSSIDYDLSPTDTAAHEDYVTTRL

[9] = molecular target: T2, Long-chain-fatty-acid--AMP ligase FadD28 (Mycobacterium tuberculosis, UniProt P9WQ59); assay: Fluorescence polarization aasay to screen for inhibitors that compete for the binding of FadD28 to a bisubstrate Measured in Biochemical System Using Plate Reader - 2147-01_Inhibitor_Dose_CherryPick_Activity.; type: functional, Mycobacterium tuberculosis H37Rv
T2 sequence (P9WQ59 whole entry): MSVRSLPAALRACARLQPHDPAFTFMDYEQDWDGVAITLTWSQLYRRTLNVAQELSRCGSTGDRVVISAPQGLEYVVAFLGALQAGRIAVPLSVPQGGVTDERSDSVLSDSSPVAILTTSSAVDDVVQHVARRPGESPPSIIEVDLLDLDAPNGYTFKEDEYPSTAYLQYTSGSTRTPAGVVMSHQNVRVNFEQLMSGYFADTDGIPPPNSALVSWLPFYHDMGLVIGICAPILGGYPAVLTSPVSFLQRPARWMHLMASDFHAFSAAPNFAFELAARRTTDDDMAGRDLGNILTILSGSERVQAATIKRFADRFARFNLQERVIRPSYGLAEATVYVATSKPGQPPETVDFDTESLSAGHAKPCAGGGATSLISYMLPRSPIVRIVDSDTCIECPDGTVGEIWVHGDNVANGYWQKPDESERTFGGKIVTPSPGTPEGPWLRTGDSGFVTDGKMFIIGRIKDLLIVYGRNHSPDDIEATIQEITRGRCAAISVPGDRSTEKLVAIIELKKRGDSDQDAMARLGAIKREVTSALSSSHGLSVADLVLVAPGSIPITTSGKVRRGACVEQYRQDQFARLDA

[10] = molecular target: T1, Short transient receptor potential channel 4; assay: calcium entry via TRPC4 opening agents – cell-based, HEK293 TRPC4/mu-opioid, Fluo-4 calcium, dose response (AID 434937); type: functional
[11] = system: H9c2; assay: cells; type: functional, cell-based; conditions: Rattus norvegicus, H9c2, Myocardium;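 also: confirmatory concentration-response retest of ultra-high-throughput screening hits for modulation of myocardial damage; cell death induced by hydrogen peroxide oxidative stress; compound pretreatment for 60 min then peroxide exposure for 2 h; potency is for protecting the cells against peroxide damage rather than for killing them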
[12] = Luminescence Cell-Based Dose Response HTS to Identify Inhibitors of 5'UTR Stem-Loop Driven Prion Protein mRNA Translation in H4 Neuroglioblastoma Cells. [Related pubchem assays: 1827 (Project Summary), 1813 (Primary HTS)]; type: functional
[13] = luciferase reporter signal suppression in cells – H4 neuroglioma cells, luminescence, dose response (AID 1990); type: functional, cell-based
[14] = alpha-synuclein stem-loop luciferase translation blockers – H4 neuroglioma cells, luminescence, confirmation (AID 1988); type: functional, cell-based
[15] = system: INS1; assay: INS-1E survival protection against cytokine death – cell-based, luminescence, retest, dose response (AID 449756); type: functional; conditions: Rattus norvegicus;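 also: cell death triggered by IL-1 beta plus TNF-alpha plus IFN-gamma mixture; protective hits raise ATP signal compared with cytokine alone wells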
[16] = molecular target: Albumin (Bos taurus, UniProt P02769); assay: Counterscreen for inhibitors of T-cell receptor (TCR)-CD3 interaction: Fluorescence-based biochemical high throughput dose response assay to identify inhibitors of T-cell receptor (TCR)-CD3 interaction using a TAMRA-labeled BSA probe.; type: functional
[17] = system: Streptococcus; assay: GAS UMAA2166 growth inhibition – luminescence, BacTiterGlo, counter-screen for streptokinase expression inhibitor project, dose response (AID 1915); type: functional, organism-based;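 also: potency for reduction of bacterial viability or growth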
[18] = molecular target: T3, Aminopeptidase N (Plasmodium falciparum FcB1/Columbia, UniProt O96935); assay: malaria alanyl aminopeptidase activity blockers – biochemical, fluorogenic H-Leu-NHMec substrate, 1536-well (AID 1445); design: species or system Plasmodium falciparum 3D7, 3D7
T3 sequence (O96935 whole entry): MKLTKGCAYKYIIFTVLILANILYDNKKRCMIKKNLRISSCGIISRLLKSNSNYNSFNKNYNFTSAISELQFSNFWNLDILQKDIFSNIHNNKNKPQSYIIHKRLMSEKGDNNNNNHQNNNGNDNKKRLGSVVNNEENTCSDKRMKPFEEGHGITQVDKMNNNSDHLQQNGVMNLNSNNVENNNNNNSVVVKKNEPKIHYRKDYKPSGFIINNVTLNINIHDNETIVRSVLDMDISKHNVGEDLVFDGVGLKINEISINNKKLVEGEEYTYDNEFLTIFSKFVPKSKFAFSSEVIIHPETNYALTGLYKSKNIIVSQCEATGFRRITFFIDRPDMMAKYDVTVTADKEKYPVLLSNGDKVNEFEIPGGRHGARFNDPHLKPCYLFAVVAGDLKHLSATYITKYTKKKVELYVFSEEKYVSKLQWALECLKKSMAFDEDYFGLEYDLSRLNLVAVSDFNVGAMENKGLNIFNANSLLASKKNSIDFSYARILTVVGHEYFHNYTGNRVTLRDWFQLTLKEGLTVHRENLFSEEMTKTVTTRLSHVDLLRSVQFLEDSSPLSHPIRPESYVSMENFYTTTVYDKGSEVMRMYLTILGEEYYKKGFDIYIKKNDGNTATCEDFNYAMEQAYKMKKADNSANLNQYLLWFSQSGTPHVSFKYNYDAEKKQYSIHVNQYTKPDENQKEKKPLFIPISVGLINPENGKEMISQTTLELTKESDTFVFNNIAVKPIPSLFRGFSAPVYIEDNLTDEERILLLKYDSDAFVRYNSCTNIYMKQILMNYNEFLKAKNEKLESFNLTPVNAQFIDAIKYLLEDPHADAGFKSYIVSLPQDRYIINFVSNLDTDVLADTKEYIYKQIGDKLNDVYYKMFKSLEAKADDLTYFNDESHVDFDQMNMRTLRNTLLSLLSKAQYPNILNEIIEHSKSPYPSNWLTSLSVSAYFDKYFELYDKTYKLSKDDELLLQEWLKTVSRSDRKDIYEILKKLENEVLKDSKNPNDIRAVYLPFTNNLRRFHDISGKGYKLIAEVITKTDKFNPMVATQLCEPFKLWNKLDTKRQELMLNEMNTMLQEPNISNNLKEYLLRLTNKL

[19] = system: Streptococcus sp. 'group A'; assay: Streptococcus pyogenes SK(-)GAS viability under kanamycin – luminescence, BacTiterGlo, confirmation, counter-screen for streptokinase expression inhibitor project, dose response (AID 1900); type: functional, organism-based
[20] = molecular target: T4, Histone-lysine N-methyltransferase NSD2 (Homo sapiens, UniProt O96028); type: biochemical
T4 sequence (O96028 whole entry): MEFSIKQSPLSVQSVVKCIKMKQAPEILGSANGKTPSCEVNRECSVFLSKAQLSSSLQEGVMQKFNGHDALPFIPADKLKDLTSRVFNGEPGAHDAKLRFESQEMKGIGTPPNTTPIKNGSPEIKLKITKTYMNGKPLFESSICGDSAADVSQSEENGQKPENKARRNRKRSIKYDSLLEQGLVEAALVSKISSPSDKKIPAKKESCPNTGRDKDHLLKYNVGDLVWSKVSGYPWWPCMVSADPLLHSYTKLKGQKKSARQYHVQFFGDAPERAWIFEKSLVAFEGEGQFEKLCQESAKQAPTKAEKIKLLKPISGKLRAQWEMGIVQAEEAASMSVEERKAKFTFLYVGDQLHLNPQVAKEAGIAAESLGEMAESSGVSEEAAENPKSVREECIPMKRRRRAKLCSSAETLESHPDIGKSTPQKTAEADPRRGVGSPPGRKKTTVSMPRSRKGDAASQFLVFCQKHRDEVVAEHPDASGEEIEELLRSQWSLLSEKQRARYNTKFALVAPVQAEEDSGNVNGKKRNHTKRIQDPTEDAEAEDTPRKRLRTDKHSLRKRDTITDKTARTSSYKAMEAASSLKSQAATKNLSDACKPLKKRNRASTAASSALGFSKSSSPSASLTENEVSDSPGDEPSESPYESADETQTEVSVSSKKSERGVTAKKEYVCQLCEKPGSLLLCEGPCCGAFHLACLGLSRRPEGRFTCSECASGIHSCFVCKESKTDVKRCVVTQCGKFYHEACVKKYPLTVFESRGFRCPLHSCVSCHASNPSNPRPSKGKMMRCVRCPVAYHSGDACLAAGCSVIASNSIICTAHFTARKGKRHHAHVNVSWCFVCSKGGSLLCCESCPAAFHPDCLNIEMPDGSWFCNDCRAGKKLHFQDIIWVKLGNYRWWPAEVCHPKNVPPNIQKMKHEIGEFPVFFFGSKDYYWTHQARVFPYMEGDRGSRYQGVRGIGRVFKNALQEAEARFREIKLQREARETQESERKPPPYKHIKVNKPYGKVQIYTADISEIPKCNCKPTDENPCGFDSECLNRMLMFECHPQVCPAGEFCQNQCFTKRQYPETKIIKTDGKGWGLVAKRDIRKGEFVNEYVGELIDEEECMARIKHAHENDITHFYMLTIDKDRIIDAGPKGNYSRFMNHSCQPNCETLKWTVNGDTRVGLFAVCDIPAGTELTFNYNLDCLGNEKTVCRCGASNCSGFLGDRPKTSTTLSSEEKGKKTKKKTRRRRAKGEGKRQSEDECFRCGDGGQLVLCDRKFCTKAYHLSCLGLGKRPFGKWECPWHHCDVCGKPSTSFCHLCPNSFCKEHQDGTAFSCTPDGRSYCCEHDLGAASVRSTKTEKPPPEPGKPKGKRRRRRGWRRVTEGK

Sequence of Albumin (P02769 whole entry): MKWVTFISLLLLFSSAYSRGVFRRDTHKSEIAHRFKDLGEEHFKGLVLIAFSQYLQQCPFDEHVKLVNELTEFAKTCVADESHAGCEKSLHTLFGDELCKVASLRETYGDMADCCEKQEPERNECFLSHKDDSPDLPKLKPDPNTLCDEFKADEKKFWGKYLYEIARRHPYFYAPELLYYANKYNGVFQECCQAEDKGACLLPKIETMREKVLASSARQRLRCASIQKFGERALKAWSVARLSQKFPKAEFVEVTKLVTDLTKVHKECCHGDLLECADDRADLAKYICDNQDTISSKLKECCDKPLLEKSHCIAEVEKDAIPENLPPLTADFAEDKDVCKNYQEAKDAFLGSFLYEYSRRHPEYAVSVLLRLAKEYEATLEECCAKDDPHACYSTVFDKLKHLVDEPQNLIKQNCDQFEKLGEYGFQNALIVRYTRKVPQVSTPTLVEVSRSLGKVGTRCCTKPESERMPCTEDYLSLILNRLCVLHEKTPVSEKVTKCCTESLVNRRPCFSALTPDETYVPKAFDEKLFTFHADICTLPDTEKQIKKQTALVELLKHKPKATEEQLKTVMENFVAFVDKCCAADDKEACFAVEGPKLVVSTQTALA

Cc1cc(Cl)ccc1OCC(=O)N1CCCN(C(=O)COc2ccc(Cl)cc2C)CC1
AC50 [1]: 2.45 µM (active)
AC50 [2]: 2.8 µM (active)
AC50 [3]: 2.71 µM (active)
AC50 [4]: 67.3 µM (active)
AC50 [5]: 1.98 µM (active)

O=C(CNC(=O)c1ccccc1Cl)N/N=C/C=C/c1ccccc1
EC50 [6]: > 29.9 µM (inactive)
IC50 [7]: > 29.9 µM (inactive)

COc1ccc(-c2nn(C)c(=O)c3ccccc23)cc1NC(=O)COc1ccccc1
AC50 [3]: 46.2 µM (active)
AC50 [4]: 42.7 µM (active)

CC1Oc2ccccc2C=C1/C=N/Nc1ccc(C(=O)O)cc1 (configuration not stated)
EC50 [8]: 2.99 µM (active)
AC50 [9]: 34.2 µM (active)

CCOc1cc(CNCCc2c[nH]c3ccccc23)cc(Cl)c1OC
AC50 [1]: 5.22 µM (active)
AC50 [2]: 0.843 µM (active)
AC50 [3]: 2.85 µM (active)
AC50 [4]: 21.5 µM (active)
EC50 [10]: 3.35 µM (active)
AC50 [5]: 1.77 µM (active)

CCOC(=O)C(NCCc1ccccc1)(NC(C)=O)C(F)(F)F (configuration not stated)
EC50 [6]: > 29.9 µM (inactive)
IC50 [7]: > 29.9 µM (inactive)

COc1ccc2nc(Nc3nc(O)cc(CSc4nc5ccccc5[nH]4)n3)nc(C)c2c1
IC50 [11]: > 79 µM (inactive)
EC50 [12]: 10.2 µM (active)
EC50 [13]: 5.63 µM (active)
AC50 [1]: 4 µM (active)
AC50 [2]: 3.57 µM (active)
AC50 [3]: 3.06 µM (active)
AC50 [4]: 5.77 µM (active)
EC50 [14]: 10.2 µM (active)
AC50 [5]: 2.16 µM (active)
AC50 [15]: 20.5 µM (active)

Cc1ccc(/C=C2\SC(=S)N(CCC(=O)NNC(=O)c3ccccc3O)C2=O)cc1
IC50 [16]: > 94.1 µM (inactive)

O=C(CCN1C(=O)/C(=C\c2ccccc2)SC1=S)NNC(=O)c1ccccc1O
IC50 [16]: > 94.1 µM (inactive)

Cc1[nH]n(-c2ccccc2)c(=O)c1N=Nc1ccccc1O
EC50 [17]: 2.12 µM (active)
IC50 [18]: < 1 µM (active)
IC50 [16]: > 94.1 µM (inactive)
EC50 [19]: 1.48 µM (active)

CC1CCCC(C)N1/N=C/c1ccc(O)c(O)c1 (configuration not stated)
IC50 [16]: > 94.1 µM (inactive)
AC50 [20]: 9.77 µM (active)
